Data on eight compounds can be found in patent EP0962457B1, “Piperidones as tachykinin antagonists” (Pfizer Limited, priority 1998, dated 1999).

One series concerns the target T1, human NK2 receptor (Homo sapiens, UniProt P21452).
T1 construct: expressed in transfected cells; host or cells: Chinese hamster ovary cells (membranes)
T1 sequence (P21452 1-398): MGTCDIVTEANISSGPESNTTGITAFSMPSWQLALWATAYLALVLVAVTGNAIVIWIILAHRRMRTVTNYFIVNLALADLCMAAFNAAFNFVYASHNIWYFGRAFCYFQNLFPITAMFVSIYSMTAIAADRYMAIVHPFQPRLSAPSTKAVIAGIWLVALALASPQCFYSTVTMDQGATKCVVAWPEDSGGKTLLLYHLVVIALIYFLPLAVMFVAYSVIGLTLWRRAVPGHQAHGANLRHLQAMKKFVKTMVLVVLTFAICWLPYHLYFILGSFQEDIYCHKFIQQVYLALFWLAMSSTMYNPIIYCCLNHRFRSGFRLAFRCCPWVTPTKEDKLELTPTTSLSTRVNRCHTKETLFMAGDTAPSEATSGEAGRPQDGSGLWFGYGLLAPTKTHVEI
The series is described as follows: NK2 receptor affinity: competition with [3H]-NKA for binding to membranes of Chinese hamster ovary cells expressing the cloned human NK2 receptor. As to conditions: CHO cell membranes, 90 min, 25°C, read-out: NK2 receptor affinity (pKi) (converted). The protocol: The affinity of the compounds of formula (I) and their salts for the human NK2 receptor can be tested in vitro by testing their ability to compete with [^3H]-NKA (neurokinin A) for binding to membranes prepared from Chinese hamster ovary cells expressing the cloned human NK2 receptor. In this method, washed Chinese hamster ovary cell membranes are prepared as described for the previous method where IM9 cells are used instead. The membranes are incubated (90 min, 25°C) with [^3H]-NKA and with a range of concentrations of the test compound. Non-specific binding was determined in the presence of 10µM NKA.
The affinity of the compounds of Tables 1 and 2 for the human NK2 receptor was tested in vitro by testing their ability to compete with [^3H]-NKA for binding to membranes prepared from Chinese hamster ovary cells expressing the cloned human NK2 receptor using the method set out on page 9.
(§1) In Tables 1 and 2 the "pKi" measurement is the negative logarithm of the molar affinity of the test compound for the receptor as determined in radioligand binding assays using standard protocols. A 1.0 log. unit difference in either the NK2 or NK3 receptor affinity figures corresponds to a 10-fold activity difference.

In a further series the target is T2, NK3 receptor (Cavia porcellus, UniProt P30098).
T2 construct: membranes from guinea pig cortex; from tissue; host or cells: guinea pig cortex membranes
T2 sequence (P30098 1-440): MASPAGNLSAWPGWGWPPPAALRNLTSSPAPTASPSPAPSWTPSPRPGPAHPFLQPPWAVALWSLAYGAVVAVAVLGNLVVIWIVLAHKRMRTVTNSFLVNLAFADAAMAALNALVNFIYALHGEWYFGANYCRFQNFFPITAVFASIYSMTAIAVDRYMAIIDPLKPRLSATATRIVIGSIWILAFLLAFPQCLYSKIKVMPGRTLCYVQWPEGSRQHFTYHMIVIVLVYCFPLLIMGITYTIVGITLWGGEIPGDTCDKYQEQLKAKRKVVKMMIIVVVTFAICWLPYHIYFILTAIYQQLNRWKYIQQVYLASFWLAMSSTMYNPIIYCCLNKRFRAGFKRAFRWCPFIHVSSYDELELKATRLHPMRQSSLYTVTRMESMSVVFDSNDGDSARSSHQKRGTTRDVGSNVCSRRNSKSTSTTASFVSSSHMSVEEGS
The series is described as follows: NK3 receptor affinity: inhibition of [3H]-senktide binding to membranes from guinea pig cortex. As to conditions: read-out: NK3 receptor affinity (pKi) (converted). The protocol:
The compounds of the formula (I) and their salts can be tested for NK3 receptor affinity, in vitro, by testing their ability to inhibit [^3H]-senktide binding to membranes from guinea pig cortex using the method of Guard, et al, Br.J.Pharmacol., 99, 767-773 (1990).
The compounds of Tables 1 and 2 were tested for NK3 receptor affinity, in vitro, by the method described on pages 9 and 10 by testing their ability to inhibit [^3H]-senktide binding to membranes from guinea pig cortex using the method of Guard, et al, Br.J.Pharmacol., 99, 767-773 (1990).
as §1

A short description of series [1]: In vitro metabolic stability: disappearance half-life in human liver microsomes (HLM/37). It is filed as in vitro ADME. As to conditions: human liver microsomes HLM/37, test compound 1µM, 37°C, 60 minutes, NADPH, read-out: Metabolic stability (t½). The protocol:
The in vitro metabolic stability of the compounds of the formula (I) and their salts can be tested by incubating samples for 1 hour at 37°C in the presence of a "moderate activity" (re. concentrations of cytochrome p450 enzymes present) human liver microsomal preparation (prepared from human liver homogenates). The samples were analysed by HPLC at regular intervals during this one hour period and the half-life (t½) determined (in minutes).
The metabolic stability of the compounds of Tables 1 and 2 was determined in vitro by the method described on page 10 according to the following experimental protocol.
Transplant-quality human liver tissue was obtained from the International Institute for the Advancement of Medicine (Exton, PA). The donors ranged in age from 26 to 65 years old and included 3 males and 3 females. Hepatic microsomes were prepared from individual human livers by the process of differential centrifugation. Briefly, the liver tissue was homogenised in 50mM Tris HCI (pH 7.4) containing 250mM sucrose and then centrifuged at 9,000G for 20 minutes to remove the cell debris and nuclear fraction. The supernatant layer was removed and further centrifuged at 105,000G for 60 minutes to pellet the microsomal fraction. […] The cytochrome P450 content was determined using the method of Omura, T., Sato, R., J. Biol. Chem., 239, 2379-2385 (1964) and the protein concentration was determined using the method of Lowry et al., J. Biol. Chem., 193, 265-275 (1951), with bovine serum albumin as the protein standard.
The metabolic activities of the 6 major drug metabolising cytochrome P450 enzymes were determined for HLM/37 and compared to values obtained from a bank of individual human livers (n = 19). […]
Aliquots (100µl) were removed from the incubation at 0, 3, 5, 10, 15, 20, 30, 45 and 60 minutes after the addition of NADPH. […] After centrifugation 150µl aliquots were removed and 120µl of each of these analysed by HPLC on a Hypersil HS C18 5µ column (50x4.6mm) with a mobile phase of methanol:water (90:10, by volume) containing 2mM ammonium acetate. […]
For orientation: Microsomes from liver hold many membrane-bound enzymes, among them those of drug oxidation.

Read-outs that look alike come from different tables or passages of the source.

For `CS(=O)(=O)N1CCC(C2CN(CC[C@]3(c4ccc(Cl)c(Cl)c4)CCC(=O)N(Cc4ccccc4)C3)C2)CC1` [Example 4], on human NK2 receptor, the Ki is 1.26 nM.

As to `CS(=O)(=O)N1CCC(C2CN(CC[C@]3(c4ccc(Cl)c(Cl)c4)CCC(=O)N(C4CCCC4)C3)C2)CC1` [Example 5], the Ki was 1 nM on human NK2 receptor and 25.1 nM at NK3 receptor.

As for `CS(=O)(=O)N1CCC(C2CN(CC[C@]3(c4ccc(F)c(F)c4)CCC(=O)N(C4CCCCC4)C3)C2)CC1` [Example 7], the Ki on human NK2 receptor was 3.16 nM.

Consider `CS(=O)(=O)N1CCC(C2CN(CC[C@]3(c4ccc(Cl)c(F)c4)CCC(=O)N(CC4CC4)C3)C2)CC1` [Example 2], for which the Ki at human NK2 receptor was 2.51 nM. Besides, in series [1], the half-life at 1 µM is > 2 h.

Consider `CS(=O)(=O)N1CCC(C2CN(CC[C@]3(c4ccc(Cl)c(Cl)c4)CCC(=O)N(CC4CCCCC4)C3)C2)CC1` [Example 6], for which the Ki on human NK2 receptor was 20 nM; on NK3 receptor it was 5.01 nM.

As to `CS(=O)(=O)N1CCC(C2CN(CC[C@]3(c4ccc(Cl)c(Cl)c4)CCC(=O)N(CCC4CC4)C3)C2)CC1` [Example 3], the half-life at 1 µM in series [1] was 0.45 h.

Turning to `CCS(=O)(=O)N1CCC(C2CN(CC[C@]3(c4ccc(Cl)c(Cl)c4)CCC(=O)N(CC4CC4)C3)C2)CC1` [Example 8, (5S)-1-(Cyclopropylmethyl)-5-(3,4-dichlorophenyl)-5-(2-[3-[1-(ethylsulfonyl)-4-piperidinyl]-1-azetanyl]ethyl)tetrahydro-2(1H)-pyridinone], the Ki at human NK2 receptor was 6.31 nM.

As for `CS(=O)(=O)N1CCC(C2CN(CC[C@]3(c4ccc(Cl)c(Cl)c4)CCC(=O)N(CC4CC4)C3)C2)CC1` [Example 1, (5S)-1-(Cyclopropylmethyl)-5-(3,4-dichlorophenyl)-5-(2-[3-[1-(methylsulfonyl)-4-piperidinyl]-1-azetanyl]ethyl)tetrahydro-2(1H)-pyridinone], the Ki at human NK2 receptor is 3.98 nM. Besides, the half-life at 1 µM in series [1] (pH 7.4) was found to be 1.25 h.
